Source: patent publication US20020137929A1, “1 - (3-heterocyclylphenyl) isothiourea, -isourea, -guanidine and -amidine herbicidal agents” (Intellectual Property Department, BASF Aktiengesellschaft, priority 1998, published 2002)

What was measured:
[1] = tested on: GALAP (Galium); assay: Postemergence herbicidal evaluation; assay type: in vivo, Galium aparine; details: for GALAP herbicidal rating: postemergence
Procedure, shortened: (§1)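 First, seedlings were raised for around two weeks. Next, test material in 50/50 acetone/water containing 0.5% TWEEN 20 was sprayed through a nozzle at 40 psi, equivalent to about 0.0156–0.500 kg/ha. Finally, after 4–5 weeks in the greenhouse, plants were rated 0–9.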

[2] = tested on: IPOHE (Morningglory, Ivyleaf); assay: Postemergence herbicidal evaluation; assay type: in vivo, Ipomoea hederacea; details: for IPOHE herbicidal rating: postemergence
Procedure, shortened: as §1

[3] = tested on: SETVI (Foxtail, Green); assay: Postemergence herbicidal evaluation; assay type: in vivo, Setaria viridis; details: for SETVI herbicidal rating: postemergence
Procedure, shortened: as §1

[4] = tested on: TRZAWR (Wheat, Winter, cv Riband); assay: Postemergence herbicidal evaluation; assay type: in vivo, Triticum aestivum; details: for TRZAWR herbicidal rating: postemergence
Procedure, shortened: as §1

[5] = tested on: ABUTH (Velvetleaf); assay: Preemergence herbicidal evaluation; assay type: in vivo, Abutilon theophrasti; details: rated 4-5 weeks after treatment
Procedure, shortened: (§2)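 Steps: mix seeds into potting soil; plant atop ~1 inch soil; spray compound in aqueous acetone (~0.0156-0.500 kg/ha equivalent); maintain in greenhouse with watering; rate visually 0-9 versus control at 4-5 weeks.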

[6] = tested on: IPOHE (Morningglory, Ivyleaf); assay: Preemergence herbicidal evaluation; assay type: in vivo, Ipomoea hederacea; details: rated 4-5 weeks after treatment
Procedure, shortened: as §2

[7] = tested on: ECHCG (Barnyardgrass); assay: Preemergence herbicidal evaluation; assay type: in vivo, Echinochloa crus-galli; details: rated 4-5 weeks after treatment
Procedure, shortened: as §2

[8] = tested on: SETVI (Foxtail, Green); assay: Preemergence herbicidal evaluation; assay type: in vivo, Setaria viridis; details: rated 4-5 weeks after treatment
Procedure, shortened: as §2

[9] = tested on: ZEAMX (Corn, Field); assay: Preemergence herbicidal evaluation; assay type: in vivo, Zea mays; details: rated 4-5 weeks after treatment
Procedure, shortened: as §2

[10] = tested on: ECHORC (Watergrass (Calif.)); assay: Preemergence weed control under flooded paddy conditions; assay type: in vivo, Echinochloa oryzoides; details: rated 3-4 weeks after treatment
Procedure, shortened: (§3)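 First, seeds or propagules go into the top 0.5 cm of silt loam; next, water is held 1.5 to 3 cm over the soil; then compound (50/50 acetone/water) is pipetted into it at about 0.0313 to 0.500 kg/ha; finally plants are rated visually 0-9 after three to four weeks.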

[11] = tested on: CYPIR (Rice Flatsedge); assay: as above; assay type: in vivo, Cyperus iria; details: rated 3-4 weeks after treatment
Procedure, shortened: as §3

[12] = tested on: MOOVA (Monochoria); assay: as above; assay type: in vivo, Monochoria vaginalis; details: rated 3-4 weeks after treatment
Procedure, shortened: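 Herbicidal effect is scored visually on a 0-9 scale against an untreated control, three to four weeks after compounds are pipetted into the flood water (1.5 to 3 cm deep) over seeds planted in silt loam at 0.5 cm depth. Rates: about 0.0313 to 0.500 kg/ha.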

[13] = tested on: ECHORC (Watergrass (Calif.)); assay: Postemergence weed control under flooded paddy conditions; assay type: in vivo, Echinochloa oryzoides; details: postemergence weeds, rated 3 to 4 weeks after treatment
Procedure, shortened: (§4)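 Herbicidal effect is judged by eye on a 0–9 scale versus control, 3–4 weeks after dosing. Dosing is into flood water kept 1.5–3 cm over the soil, at about 0.0313–0.500 kg/ha in aqueous/acetone 50/50 v/v, on 3–5 cm weeds and 1.5–2.5-leaf rice seedlings.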

[14] = tested on: SAGPY (Arrowhead (Pygmaea)); assay: as above; assay type: in vivo, Sagittaria pygmaea; details: postemergence weeds, rated 3 to 4 weeks after treatment
Procedure, shortened: as §4

CN1C(=O)C(CC(=O)O)SC1=Nc1cc(-n2c(=O)cc(C(F)(F)F)n(C)c2=O)c(F)cc1Cl (stereo not drawn) [Compound 63, 2-{{2-Chloro-5-[3,6-dihydro-3-methyl-2,6-dioxo-4-(trifluoromethyl)-1(2H)-pyrimidinyl]-4-fluoro-phenyl}imino}-3-methyl-4-oxo-5-thiazolidineacetic acid]
Postemergence herbicidal rating GALAP ([1]; Rate 0.0158 kg/ha): 1.0
Postemergence herbicidal rating GALAP ([1]; Rate 0.0315 kg/ha): 6.0
Postemergence herbicidal rating GALAP ([1]; Rate 0.0630 kg/ha): 7.0
Postemergence herbicidal rating IPOHE ([2]; Rate 0.0158 kg/ha): 9.0
Postemergence herbicidal rating IPOHE ([2]; Rate 0.0315 kg/ha): 9.0
Postemergence herbicidal rating IPOHE ([2]; Rate 0.0630 kg/ha): 9.0
Postemergence herbicidal rating SETVI ([3]; Rate 0.0158 kg/ha): 9.0
Postemergence herbicidal rating SETVI ([3]; Rate 0.0315 kg/ha): 9.0
Postemergence herbicidal rating SETVI ([3]; Rate 0.0630 kg/ha): 9.0
Postemergence herbicidal rating TRZAWR ([4]; Rate 0.0158 kg/ha): 5.5
Postemergence herbicidal rating TRZAWR ([4]; Rate 0.0315 kg/ha): 6.0
Postemergence herbicidal rating TRZAWR ([4]; Rate 0.0630 kg/ha): 7.0
Preemergence herbicidal rating ABUTH ([5]; rate 0.0156 kg/ha): 1.0
Preemergence herbicidal rating ABUTH ([5]; rate 0.0313 kg/ha): 6.0
Preemergence herbicidal rating ABUTH ([5]; rate 0.0625 kg/ha): 9.0
Preemergence herbicidal rating ABUTH ([5]; rate 0.1250 kg/ha): 9.0
Preemergence herbicidal rating ABUTH ([5]; rate 0.2500 kg/ha): 9.0
Preemergence herbicidal rating IPOHE ([6]; rate 0.0156 kg/ha): 0.0
Preemergence herbicidal rating IPOHE ([6]; rate 0.0313 kg/ha): 1.0
Preemergence herbicidal rating IPOHE ([6]; rate 0.0625 kg/ha): 6.0
Preemergence herbicidal rating IPOHE ([6]; rate 0.1250 kg/ha): 7.0
Preemergence herbicidal rating IPOHE ([6]; rate 0.2500 kg/ha): 9.0
Preemergence herbicidal rating ECHCG ([7]; rate 0.0156 kg/ha): 0.0
Preemergence herbicidal rating ECHCG ([7]; rate 0.0313 kg/ha): 0.0
Preemergence herbicidal rating ECHCG ([7]; rate 0.0625 kg/ha): 1.0
Preemergence herbicidal rating ECHCG ([7]; rate 0.1250 kg/ha): 4.0
Preemergence herbicidal rating ECHCG ([7]; rate 0.2500 kg/ha): 9.0
Preemergence herbicidal rating SETVI ([8]; rate 0.0156 kg/ha): 0.0
Preemergence herbicidal rating SETVI ([8]; rate 0.0313 kg/ha): 0.0
Preemergence herbicidal rating SETVI ([8]; rate 0.0625 kg/ha): 1.0
Preemergence herbicidal rating SETVI ([8]; rate 0.1250 kg/ha): 9.0
Preemergence herbicidal rating SETVI ([8]; rate 0.2500 kg/ha): 9.0
Preemergence herbicidal rating ZEAMX ([9]; rate 0.0156 kg/ha): 0.0
Preemergence herbicidal rating ZEAMX ([9]; rate 0.0313 kg/ha): 1.0
Preemergence herbicidal rating ZEAMX ([9]; rate 0.0625 kg/ha): 2.0
Preemergence herbicidal rating ZEAMX ([9]; rate 0.1250 kg/ha): 6.0
Preemergence herbicidal rating ZEAMX ([9]; rate 0.2500 kg/ha): 7.0
ECHORC herbicidal effect rating ([10]; 0.0313 kg/ha): 0.0
ECHORC herbicidal effect rating ([10]; 0.0625 kg/ha): 0.0
ECHORC herbicidal effect rating ([10]; 0.1250 kg/ha): 5.0
ECHORC herbicidal effect rating ([10]; 0.2500 kg/ha): 5.0
CYPIR herbicidal effect rating ([11]; 0.0313 kg/ha): 2.0
CYPIR herbicidal effect rating ([11]; 0.0625 kg/ha): 6.0
CYPIR herbicidal effect rating ([11]; 0.1250 kg/ha): 7.0
CYPIR herbicidal effect rating ([11]; 0.2500 kg/ha): 7.0
MOOVA herbicidal effect rating ([12]; 0.0313 kg/ha): 9.0
MOOVA herbicidal effect rating ([12]; 0.0625 kg/ha): 9.0
MOOVA herbicidal effect rating ([12]; 0.1250 kg/ha): 9.0
MOOVA herbicidal effect rating ([12]; 0.2500 kg/ha): 9.0
Herbicidal rating ECHORC ([13]; Rate 0.0313 kg/ha): 0.0
Herbicidal rating ECHORC ([13]; Rate 0.0625 kg/ha): 0.0
Herbicidal rating ECHORC ([13]; Rate 0.1250 kg/ha): 5.0
Herbicidal rating ECHORC ([13]; Rate 0.2500 kg/ha): 5.0
Herbicidal rating SAGPY ([14]; Rate 0.0313 kg/ha): 4.0
Herbicidal rating SAGPY ([14]; Rate 0.0625 kg/ha): 7.0
Herbicidal rating SAGPY ([14]; Rate 0.1250 kg/ha): 9.0
Herbicidal rating SAGPY ([14]; Rate 0.2500 kg/ha): 9.0

CCOC(=O)CN1C(=O)C(CC(=O)Nc2ccccc2)SC1=Nc1cc(-n2c(=O)cc(C(F)(F)F)n(C)c2=O)c(F)cc1Cl (stereo not drawn) [Compound 68, Ethyl 2-{{2-chloro-5-[3,6-dihydro-3-methyl-2,6-dioxo-4-(trifluoromethyl)-1(2H)-pyrimidinyl]-4-fluorophenyl}imino}-4-oxo-5-[(phenylcarbamoyl)-methyl]-3-thiazolidineacetate]
GALAP herbicidal rating ([1]; rate 0.0158 kg/ha): 2.0
GALAP herbicidal rating ([1]; rate 0.0315 kg/ha): 3.0
GALAP herbicidal rating ([1]; rate 0.0630 kg/ha): 4.0
IPOHE herbicidal rating ([2]; rate 0.0158 kg/ha): 9.0
IPOHE herbicidal rating ([2]; rate 0.0315 kg/ha): 9.0
IPOHE herbicidal rating ([2]; rate 0.0630 kg/ha): 9.0
SETVI herbicidal rating ([3]; rate 0.0158 kg/ha): 2.0
SETVI herbicidal rating ([3]; rate 0.0315 kg/ha): 6.0
SETVI herbicidal rating ([3]; rate 0.0630 kg/ha): 6.0
TRZAWR herbicidal rating ([4]; rate 0.0158 kg/ha): 3.0
TRZAWR herbicidal rating ([4]; rate 0.0315 kg/ha): 3.5
TRZAWR herbicidal rating ([4]; rate 0.0630 kg/ha): 4.0
Preemergence herbicidal rating ABUTH ([5]; rate 0.0156 kg/ha): 0.0
Preemergence herbicidal rating ABUTH ([5]; rate 0.0313 kg/ha): 1.0
Preemergence herbicidal rating ABUTH ([5]; rate 0.0625 kg/ha): 1.0
Preemergence herbicidal rating ABUTH ([5]; rate 0.1250 kg/ha): 5.0
Preemergence herbicidal rating ABUTH ([5]; rate 0.2500 kg/ha): 9.0
Preemergence herbicidal rating IPOHE ([6]; rate 0.0156 kg/ha): 0.0
Preemergence herbicidal rating IPOHE ([6]; rate 0.0313 kg/ha): 0.0
Preemergence herbicidal rating IPOHE ([6]; rate 0.0625 kg/ha): 0.0
Preemergence herbicidal rating IPOHE ([6]; rate 0.1250 kg/ha): 0.0
Preemergence herbicidal rating IPOHE ([6]; rate 0.2500 kg/ha): 6.0
Preemergence herbicidal rating ECHCG ([7]; rate 0.0156 kg/ha): 0.0
Preemergence herbicidal rating ECHCG ([7]; rate 0.0313 kg/ha): 0.0
Preemergence herbicidal rating ECHCG ([7]; rate 0.0625 kg/ha): 0.0
Preemergence herbicidal rating ECHCG ([7]; rate 0.1250 kg/ha): 0.0
Preemergence herbicidal rating ECHCG ([7]; rate 0.2500 kg/ha): 1.0
Preemergence herbicidal rating SETVI ([8]; rate 0.0156 kg/ha): 0.0
Preemergence herbicidal rating SETVI ([8]; rate 0.0313 kg/ha): 0.0
Preemergence herbicidal rating SETVI ([8]; rate 0.0625 kg/ha): 0.0
Preemergence herbicidal rating SETVI ([8]; rate 0.1250 kg/ha): 0.0
Preemergence herbicidal rating SETVI ([8]; rate 0.2500 kg/ha): 2.0
Preemergence herbicidal rating ZEAMX ([9]; rate 0.0156 kg/ha): 0.0
Preemergence herbicidal rating ZEAMX ([9]; rate 0.0313 kg/ha): 0.0
Preemergence herbicidal rating ZEAMX ([9]; rate 0.0625 kg/ha): 0.0
Preemergence herbicidal rating ZEAMX ([9]; rate 0.1250 kg/ha): 1.0
Preemergence herbicidal rating ZEAMX ([9]; rate 0.2500 kg/ha): 1.0
ECHORC herbicidal effect rating ([10]; 0.0313 kg/ha): 0.0
ECHORC herbicidal effect rating ([10]; 0.0625 kg/ha): 5.0
ECHORC herbicidal effect rating ([10]; 0.1250 kg/ha): 7.0
ECHORC herbicidal effect rating ([10]; 0.2500 kg/ha): 7.0
CYPIR herbicidal effect rating ([11]; 0.0313 kg/ha): 0.0
CYPIR herbicidal effect rating ([11]; 0.0625 kg/ha): 0.0
CYPIR herbicidal effect rating ([11]; 0.1250 kg/ha): 5.0
CYPIR herbicidal effect rating ([11]; 0.2500 kg/ha): 8.0
MOOVA herbicidal effect rating ([12]; 0.0313 kg/ha): 3.0
MOOVA herbicidal effect rating ([12]; 0.0625 kg/ha): 9.0
MOOVA herbicidal effect rating ([12]; 0.1250 kg/ha): 9.0
MOOVA herbicidal effect rating ([12]; 0.2500 kg/ha): 9.0
Herbicidal rating ECHORC ([13]; Rate 0.0313 kg/ha): 0.0
Herbicidal rating ECHORC ([13]; Rate 0.0625 kg/ha): 5.0
Herbicidal rating ECHORC ([13]; Rate 0.1250 kg/ha): 7.0
Herbicidal rating ECHORC ([13]; Rate 0.2500 kg/ha): 7.0
Herbicidal rating SAGPY ([14]; Rate 0.0313 kg/ha): 0.0
Herbicidal rating SAGPY ([14]; Rate 0.0625 kg/ha): 0.0
Herbicidal rating SAGPY ([14]; Rate 0.1250 kg/ha): 0.0
Herbicidal rating SAGPY ([14]; Rate 0.2500 kg/ha): 3.0
